Results taken from patent publication US20170052170A1, “NOVEL CELL LINES AND METHODS” (priority 2009, published 2017).
Bridge positions count the residues as written; N and C are the ends. Peptide text beside a SMILES is read from it.

How the values were obtained:
human GC-C [1] = target: T1, human GC-C (Homo sapiens, UniProt P25092, F281L); settings: Forte et al. 1999; cited from earlier work
human GC-C [2] = target: T1, human GC-C; assay: cGMP competitive ELISA / Direct Cyclic GMP Enzyme Immunoassay, GC-C-expressing 293T cell line; type: cell-based; set-up: expressed in transfected cells; host or cells: 293T
Method: Populations of cells were tested using functional criteria. The Direct Cyclic GMP Enzyme Immunoassay Kit (Cat. 900-014; AssayDesigns, Inc.) was used according to manufacturer's instructions: (http://www.assaydesigns.com/objects/catalog//product/extras/900-014.pdf). Cells were tested at 4 different densities in 96- or 384-well plates and responses were analyzed. The following conditions were used for the GC-C-expressing cell lines of the invention: • Clone screening: 1:2 and 1:3 splits of confluent 96-well plates 48 hour prior to assay, 30 minutes guanylin treatment. • Dose-response studies: densities of 20,000, 40,000, 60,000, 80,000, 120,000 and 160,000 per well, 30 minutes guanylin treatment (see Example 8). • Z′ studies: densities of 160,000 and 200,000 per well were used, 30 minutes guanylin treatment (see Example 9).
A competitive ELISA for detection of cGMP was used to characterize native GC-C function in the produced GC-C-expressing cell line. Cells expressing GC-C were maintained under standard cell culture conditions in Dulbecco's Modified Eagles medium (DMEM) supplemented with 10% fetal bovine serum, glutamine and HEPES and grown in T175 cm flasks. For the ELISA, the cells were plated into coated 96-well plates (poly-D-lysine).
Cells were washed twice with serum-free medium and incubated with 1 mM IBMX for 30 minutes. Desired activators (i.e., guanylin, 0.001-40 μM) were then added to the cells and incubated for 30-40 minutes. Supernatant was removed, and the cells were washed with TBS buffer. […]. This was followed by lysis with 0.1N HCl and a freeze/thaw cycle at −20° C./room temperature. […]
All of the following steps were performed at room temperature, unless otherwise indicated. […] The absorbance was then read at 405 nm on a SAFIRE^2™ plate reader (Tecan). […]
Z′ for the produced GC-C-expressing cell line was calculated using a direct competitive ELISA assay. […] Absorbance (corresponding to cGMP levels) in the two conditions was monitored using a SAFIRE^2™ plate reader (Tecan). […]

[3] = system: human bitter receptor-Gα15 cell lines; assay: isoproterenol dose response (intracellular free calcium) in human bitter receptor-Gα15 cell lines; type: cell-based; settings: change in intracellular free calcium, read-out: EC50 in a dose response curve conducted with the cell or cell line
From the text: In some embodiments, the bitter receptor is a functional bitter receptor. In some embodiments, the cell or cell line has a change in the concentration of intracellular free calcium when contacted with isoproterenol. […] In some embodiments, the cell or cell line has a signal to noise ratio of greater than 1.
According to yet another aspect of the present invention, a method of identifying a modulator of a bitter receptor function comprises: a) exposing a cell or cell line that stably expresses a bitter receptor to a test compound; and b) detecting a change in a function of the bitter receptor. In some embodiments, the detecting utilizes an assay that measures intracellular free calcium. In some embodiments, the intracellular free calcium is measured using one or more calcium-sensitive fluorescent dyes, a fluorescence microscope, and optionally a fluorescent plate reader, wherein at least one fluorescent dye binds free calcium. In some other embodiments, the intracellular free calcium is monitored by real-time imaging using one or more calcium-sensitive fluorescent dyes, wherein at least one fluorescent dye binds free calcium.
FIG. 16 is a graph showing dose response curves of relative responses to isoproterenol in 25 human bitter receptor-Gα15 cell lines.

human CFTR = assay: Fluorescence membrane potential assay, CHO cell lines stably expressing CFTR; type: cell-based; settings: 15,000 cells/well, 384-well plate; read-out: EC50 (cell fluorescence response)
Method: CHO cell lines stably expressing CFTR were maintained under standard cell culture conditions in Ham's F12 medium supplemented with 10% fetal bovine serum and glutamine. On the day before assay, the cells were harvested from stock plates and plated into black clear-bottom 384 well assay plates. The assay plates were maintained in a 37° C. cell culture incubator under 5% CO2 for 22-24 hours. The media was then removed from the assay plates and blue membrane potential dye (Molecular Devices Inc.) diluted in loading buffer (137 mM NaCl, 5 mM KCl, 1.25 mM CaCl2, 25 mM HEPES, 10 mM glucose) was added and allowed to incubate for 1 hour at 37° C. […] The cellular response as a function of changes in cell fluorescence was monitored over time by a fluorescent plate reader (Hamamatsu FDSS). […] Z' value for the produced stable CFTR-expressing cell line was calculated using a high-throughput compatible fluorescence membrane potential assay. The fluorescence membrane potential assay protocol was performed substantially according to the protocol in Example 12. […] Cell responses in the two conditions were monitored using a fluorescent plate reader (Hamamatsu FDSS). Mean and standard deviations in the two conditions were calculated and Z' was computed using the method disclosed in Zhang et al., J Biomol Screen, 4(2): 67-73, (1999). […]

T1 sequence (P25092 24-1073 F281L): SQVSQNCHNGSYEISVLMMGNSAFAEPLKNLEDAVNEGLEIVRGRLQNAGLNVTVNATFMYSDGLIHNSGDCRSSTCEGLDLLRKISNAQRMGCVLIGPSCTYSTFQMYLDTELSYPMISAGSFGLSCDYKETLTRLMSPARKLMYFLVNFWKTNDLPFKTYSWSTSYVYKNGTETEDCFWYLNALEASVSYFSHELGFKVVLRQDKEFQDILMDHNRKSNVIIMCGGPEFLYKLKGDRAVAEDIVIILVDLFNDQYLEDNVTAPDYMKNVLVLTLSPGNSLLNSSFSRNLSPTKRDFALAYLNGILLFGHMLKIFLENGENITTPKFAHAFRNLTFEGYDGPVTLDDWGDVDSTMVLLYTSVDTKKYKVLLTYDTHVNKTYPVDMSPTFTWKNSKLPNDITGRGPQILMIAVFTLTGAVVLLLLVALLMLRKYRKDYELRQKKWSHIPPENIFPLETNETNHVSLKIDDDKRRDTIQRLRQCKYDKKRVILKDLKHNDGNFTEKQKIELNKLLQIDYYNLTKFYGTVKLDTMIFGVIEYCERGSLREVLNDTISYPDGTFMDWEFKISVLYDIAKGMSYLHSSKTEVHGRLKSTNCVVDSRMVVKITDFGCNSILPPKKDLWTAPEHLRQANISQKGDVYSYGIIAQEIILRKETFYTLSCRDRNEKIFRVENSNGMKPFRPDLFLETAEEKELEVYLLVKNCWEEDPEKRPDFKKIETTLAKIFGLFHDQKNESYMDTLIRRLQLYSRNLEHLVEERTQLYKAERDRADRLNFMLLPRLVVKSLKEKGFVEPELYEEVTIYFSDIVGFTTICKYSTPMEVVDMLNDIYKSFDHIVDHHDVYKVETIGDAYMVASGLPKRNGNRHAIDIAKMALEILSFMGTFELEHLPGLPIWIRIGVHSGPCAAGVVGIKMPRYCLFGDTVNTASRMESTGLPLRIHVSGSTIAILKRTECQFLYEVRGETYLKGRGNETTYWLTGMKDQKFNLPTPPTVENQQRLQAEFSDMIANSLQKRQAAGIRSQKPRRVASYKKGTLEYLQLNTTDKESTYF

Compound: CC[C@H](C)[C@@H]1NC(=O)[C@H](CCC(=O)O)NC(=O)[C@@H](NC(=O)[C@@H](NC(=O)CNC(=O)[C@@H]2CCCN2)[C@@H](C)O)CSSC[C@@H]2NC(=O)[C@H](C)NC(=O)[C@H](C)NC(=O)[C@H](Cc3ccc(O)cc3)NC(=O)[C@H](C)NC(=O)[C@H](CSSC[C@@H](C(=O)O)NC(=O)CNC(=O)[C@H]([C@@H](C)O)NC2=O)NC1=O [guanylin] (H-PGTCEICAYAACTGC-OH; disulfide 4-12, 7-15 (inferred); N-terminus and C-terminus assumed)
- level of cGMP previously reported in other cell lines (human GC-C [1]): 3.5 pmol/mL
- absorbance in cGMP ELISA (reduction corresponds to increased cGMP levels) (human GC-C [2]; 100 nM guanylin): Reduction in absorbance
- EC50 (human GC-C [2]; 30 minutes treatment, 96-well plate, read-out: EC50 value (cGMP response)): 1.1 nM
- level of cGMP (human GC-C [2]; produced GC-C-expressing cell line, low concentrations of guanylin): 6 pmol/mL

Compound: CC(C)NCC(O)c1ccc(O)c(O)c1 (stereo not drawn) [isoproterenol]
- EC50 [3]: 1 to 20 nM

Compound: C=C[C@@]1(C)CC(=O)[C@]2(O)[C@@]3(C)[C@@H](O)CCC(C)(C)[C@@H]3[C@H](O)[C@H](OC(C)=O)[C@@]2(C)O1 [forskolin]
- EC50 (human CFTR): 256 nM
